Source: patent US12091650B2, “Development of spinal cord on a microfluidic chip” (EMULATE, INC., priority 2016, dated 2024)
Entries after “also recorded” stand apart in the source; their conditions may differ.

Legend:
[1] = tested on: SC-Chip neurons (lines 83GFP and 00iCTR); type: cell-based, human
neurons seeded in chip = type: cell-based, human
[2] = tested on: BMECs seeded on a microfluidic device; assay: Paracellular permeability assay with Dextran-FITC on chip; type: cell-based, human; settings: FIG. 14B, TNFa exposure
Method: Albumin or Dextran conjugated to a fluorescent probe (e.g., FITC or TRITC) are frequently used to monitor changes in leakage, and thus barrier function. In this case, Dextran-FITC, a green fluorescent molecule of 4 KDa, or sodium fluorescein (a 0.3 KDa molecule), was added to the bottom (“blood side”) channel. Paracellular permeability was calculated by measuring the permeability of the fluorescent molecule on the Top (“brain side”) channel. […] FIG. 14B involves TNF-alpha exposure, but the readout is membrane permeability as measured by Dextran-FITC.

iBMEC barrier function = assay: TEER measurement on prototype TEER chips under flow; type: cell-based, human; settings: FIG. 14A, chips under flow then exposed to TNFa
Method: Cells were plated on tall channel PDMS chips equipped with incorporated gold electrodes on each channel (see FIG. 13A). Post seeding of BMECs, transendothelial electrical resistance was measured by connecting the electrodes to an EVOM2 voltohmmeter (see FIG. 13B). […] The “damaged” chip was a failure due to the TEER-Chips being a prototype.
Higher TEER values generally indicate a tighter barrier, which is typically desirable for a blood-brain barrier.

[3] = tested on: blood brain barrier (BBB) on-chip; type: in vitro ADME, human; settings: FIG. 46A, % Dextran (fluorescence)
Method: (§1) In some embodiments, methods for seeding cells on-chip are provided, as follows for one example: Day—1: Activate and Coat Chips, Day 0: Seed HBMECs, Astrocytes and Pericytes.; Day 1: Initiate flow of media @60 μl/hr. Bottom channel only or Top and bottom channels.; Day 2: Initiate permeability assay: Dextran+ Serum proteins+ Compounds of interest.; Day 3: End permeability assay. Collect media and freeze.; Day 4: Test permeability modulators/experimental stimuli Day 5: Repeat permeability assay.; Day 6: End permeability assay—Collect media and freeze. Fix or lyse chips.

[4] = tested on: blood brain barrier (BBB) on-chip, iPS-derived brain endothelial cells; assay: Barrier function test with human serum proteins (ELISA); type: in vitro ADME; settings: FIG. 47, ELISA
Method: as §1

Compound: NC1=N[C@H](O)[C@H]2[C@H]3O[C@]4(O)O[C@@H]([C@@H](O)[C@@]2(N1)[C@@H]4O)[C@]3(O)CO [tetrodotoxin]
- neuron activity (calcium transients) [1]: completely ablated
- effect on calcium flux (neuronal) activity (neurons seeded in chip): ablates this activity

Compound: TNFa
- permeability through the semi-porous membrane by dextran-FITC after exposure [2]: increase in permeability
- iBMEC barrier function (TEER) after exposure (iBMEC barrier function): weakening of barrier function; also recorded: decrease in barrier function and TEER

Compound: Dextran
- diffusion from Vascular Channel to Neuronal Channel [3]: low diffusion

Compound: transferrin: human transferrin measured by ELISA
- diffusion / level in neuronal channel, from Vascular Channel to Neuronal Channel [4]: High levels
